Experimental data taken from paper PMC11467737, “Osteocalcin binds to a GPRC6A Venus fly trap allosteric site to positively modulate GPRC6A signaling” (FASEB BioAdvances, 2024).
Residue numbers refer to the chain shown, from its start. Bridge positions count the residues as written; N and C are the ends. Ends that are not written are not given here.

Key:
H355P hGPRC6A = target: T1, H355P hGPRC6A (Homo sapiens, UniProt Q5T6X5, H355P); experiment: ERK activation in HEK-293 cells transfected with H355P hGPRC6A; type: cell-based; conditions: H355P mutant; for ERK activation by Ocn small fragments: fragment at 20 nM, Figure 6D
T1 construct: expressed in transfected cells; host or cells: HEK-293, pcDNA3
T1 sequence (Q5T6X5 19-926 H355P): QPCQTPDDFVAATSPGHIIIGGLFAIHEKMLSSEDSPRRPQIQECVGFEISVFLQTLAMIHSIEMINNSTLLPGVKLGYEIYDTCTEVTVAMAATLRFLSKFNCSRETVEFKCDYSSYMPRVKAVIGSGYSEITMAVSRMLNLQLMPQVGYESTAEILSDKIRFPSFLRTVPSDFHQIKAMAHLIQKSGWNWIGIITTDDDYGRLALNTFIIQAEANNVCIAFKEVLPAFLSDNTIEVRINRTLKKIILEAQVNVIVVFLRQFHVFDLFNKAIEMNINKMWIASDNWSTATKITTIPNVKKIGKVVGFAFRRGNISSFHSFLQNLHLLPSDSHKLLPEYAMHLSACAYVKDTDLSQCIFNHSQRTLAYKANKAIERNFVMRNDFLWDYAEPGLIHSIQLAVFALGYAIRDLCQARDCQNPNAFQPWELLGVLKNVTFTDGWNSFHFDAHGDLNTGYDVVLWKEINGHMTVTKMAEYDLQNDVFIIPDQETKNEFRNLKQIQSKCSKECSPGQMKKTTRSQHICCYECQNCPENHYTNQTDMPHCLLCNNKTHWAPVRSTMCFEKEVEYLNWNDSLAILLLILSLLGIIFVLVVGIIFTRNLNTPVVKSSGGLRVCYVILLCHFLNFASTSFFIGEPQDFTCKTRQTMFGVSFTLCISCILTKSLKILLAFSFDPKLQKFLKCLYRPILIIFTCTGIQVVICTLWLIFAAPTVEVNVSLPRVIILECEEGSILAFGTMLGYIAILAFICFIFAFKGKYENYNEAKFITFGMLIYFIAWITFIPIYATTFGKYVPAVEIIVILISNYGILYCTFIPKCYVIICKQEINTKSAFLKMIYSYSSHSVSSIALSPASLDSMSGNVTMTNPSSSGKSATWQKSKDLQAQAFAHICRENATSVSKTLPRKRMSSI
Procedure: (§1) All culture reagents were from Invitrogen (Waltham, MA, USA). Human embryonic kidney HEK‐293 cells were obtained from American Type Culture Collection and cultured in DMEM medium supplemented with 10% fetal bovine serum and 1% Penicillin/Streptomycin (P/S). Briefly, HEK‐293 cells transfected with/without human GPRC6A isoforms cDNA plasmids were starved by overnight incubation in serum‐free DMEM/F12 containing 0.1% bovine serum albumin (BSA) and stimulated with various ligands at different doses. ERK activation was assessed 20 min after treatment by using ERK1/2 (phospho‐T203/Y204) ELISA Kit (Invitrogen; Waltham, MA, USA) corrected for the amount of total ERK using ERK1/2 (Total) ELISA Kit (Invitrogen; Waltham, MA, USA) to measure ERK levels.
(§2) In‐vitro mutagenesis by PCR‐mediated recombination QuikChange II XL Site‐Directed Mutagenesis Kit (Agilent) was performed using the cDNA of human GPRC6A cloned in the vector pcDNA3 (Invitrogen) as a template. The primer sets are as follows. K352E.sen: […]; K352E.antisen: […]; H355P.sen: […]; H355P.antisen: […]; K352E/H355P.sen: […]; and K352E/H355P.antisen: […]. All mutants were confirmed by sequencing.

K352E hGPRC6A = target: T2, K352E hGPRC6A (Homo sapiens, UniProt Q5T6X5, K352E); experiment: ERK activation in HEK-293 cells transfected with K352E hGPRC6A; type: cell-based; conditions: K352E mutant; for ERK activation by Ocn small fragments: fragment at 20 nM, Figure 6D
T2 construct: expressed in transfected cells; host or cells: HEK-293, pcDNA3
T2 sequence (Q5T6X5 19-926 K352E): T1 sequence (Q5T6X5 19-926 H355P) with K334E, P337H
Procedure: as §1, §2

| Substance | ERK phosphorylation, dose response of full-length Ocn, versus wild-type receptor (H355P hGPRC6A; Figure 6B) | ERK phosphorylation, dose response of full-length Ocn, versus wild-type receptor (K352E hGPRC6A; Figure 6B) | ERK activation by Ocn small fragments (H355P hGPRC6A) | ERK activation by Ocn small fragments (K352E hGPRC6A) |
| --- | --- | --- | --- | --- |
| osteocalcin (YLYQWLGAPVPYPDPLEPRREVCELNPDCDELADHIGFQEAYRRFYGPV; not fully specified; ends and bridges not checked; UniProt P02818 52-100, looked up) [Ocn 1–49, full human Ocn (49 aa) synthesized by BioMatik; methods also describe decarboxylated Ocn purified from bovine tibial bone, reference compound] | significantly decreased | significantly decreased |  |  |
| RFYGPV [Ocn 44–49, synthesized human Ocn C‐terminal hexapeptide] |  |  | significantly attenuated | significantly attenuated |
| REVCELNPDC (disulfide 4-10 (inferred)) [Ocn 20–29, synthesized human Ocn decapeptide fragment located in the middle of the protein] |  |  | no response | no response |
